Source: article PMC6370856, “Peptidyl prolyl cis/trans isomerase activity on the cell surface correlates with extracellular matrix development” (Communications Biology, 2019)

Columns and labels:
[1] = tested on: PBMC samples from healthy donors, mixed; assay: PACS in a two-way mixed lymphocyte reaction; format: cell-based, human; details: for effect on PACS in two-way mixed lymphocyte reaction: PBMCs treated with immunosuppressive drug; for cell surface PPIase activity k, Exp. 1 / cell surface PPIase activity k, Exp. 2 / cell surface PPIase activity k, Exp. 3 / cell surface PPIase activity k, Exp. 4 / cell surface PPIase activity k, Mean: 24 hours
Protocol: PACS were measured with four PBMC samples from healthy donors or with all six different combinations. […] After 24 h, diminished activity was detected in all combinations (Fig. 6d). For two combinations, no trace of activity could be detected, resembling the results from some primary samples of leukemia cells.
Mixed lymphocyte reaction is a routine assay used to measure the safety of implantable materials and the effect of immunosuppressive treatments. The PACS assay could become an alternative test, within a relatively short period of time, avoiding the use of biochemical reagents such as antibodies.
The assay was performed in a cold room. If there was no additional description, the assays were performed in CO2-independent medium supplemented with 10% (v/v) h.i. FBS (medium-h.i. FBS) and 2mM L-glutamine. […] FBS to a final concentration of 120 µg mL^−1 (two times substrate stock). α-Chymotrypsin was prepared freshly. Fifteen micrograms of α-chymotrypsin was dissolved in 2 mL medium-h.i. FBS, and the pH was adjusted with 10 µL 1 M NaOH. Five millimole CsA, SLF, and CsA/SLF mixture were prepared in DMSO.
One or more flasks of cells (5 mL per flask, depending on the maximum culture density of each cell line) were harvested by centrifuging at 1000 rpm for 3 min. To remove PPIases from the supernatant originating from the culture, cells were washed one time with 2 mL CO2-independent medium and were resuspended in 1.6 mL of CO2-independent medium with substrate. The cells were centrifuged again, and then 800 µL of the supernatant was taken. The residual volume containing cells was suspended. Nineteen microliters of the cells or supernatant was pipetted to a non-binding 96-well microplate to measure PPIase activity. Four different conditions were performed. […] The plate was kept for 5 min without agitation. The activity measurements were triggered by adding 20 µL of α-chymotrypsin at time 0 min, followed by 1.5 min agitation, and the reaction was stopped after 2 min with 80 µL 20% acetic acid, followed by 15 rounds of up and down pipetting mixing. Four independent experiments were performed on the same day.

[2] = tested on: mixture of Jurkat T lymphocyte and the plasma protein fibrinogen; assay: Viscosity/shear rate measurement of Jurkat cells in fibrinogen solution; format: cell-based
Description: Since PPIases can catalyze the dynamic rearrangement of the dense ECM polymer network, we speculated that PPIases could also affect the dynamic interaction between cells and the ECM. Probing the influence of transient prolyl isomerization on cell–ECM interaction is difficult. Studying cell adhesion by the treatment of PPIase inhibitors cannot distinguish extracellular and intracellular factors as well as receptor-mediated signaling due to the long assay time. In order to reflect the highly dynamic process, we measured the viscosity of plasma protein solution with cells. Blood is a shear-thinning non-Newtonian fluid, and its viscosity is largely affected by the interaction between cells and plasma proteins, for example, the coagulation process. We investigated whether the catalyzed isomerization could also influence the interaction between blood cells and plasma proteins, thus affecting the viscosity. We performed viscosity/shear rate measurements using a mixture of Jurkat T lymphocyte and the plasma protein fibrinogen.
The machine used for viscosity is the same as for stiffness measurements. To 30 µL of 4 mg mL^−1 fibrinogen, an equal volume of Jurkat cells (8 × 10^7 mL^−1 in PBS, washed two times with PBS before used; Jurkat cells ocupated around 20% of the volume) was added. The mixture was pipetted up and down six times, kept on ice for 10 min, and then transferred to the rheometer plater (25 °C) for measurements. The plate temperature was raised to 37 °C. The measurement was performed by increasing shear rate ramp liner from 100 to 1000 s^−1. Hundred data points were collected during the measurements. For each condition, two independent experiments were performed (Fig. 1c and Supplementary Fig. 3).

Pin1 = biological target: T1, Pin1 (Homo sapiens, UniProt Q13526); assay: Liquid chromatography-based protease-coupled PPIase activity assay, Pin1 (nagarse); format: biochemical
T1 construct: host or cells: Escherichia coli BL21 (DE3)
T1 sequence (Q13526 with tags, fused parts or gaps): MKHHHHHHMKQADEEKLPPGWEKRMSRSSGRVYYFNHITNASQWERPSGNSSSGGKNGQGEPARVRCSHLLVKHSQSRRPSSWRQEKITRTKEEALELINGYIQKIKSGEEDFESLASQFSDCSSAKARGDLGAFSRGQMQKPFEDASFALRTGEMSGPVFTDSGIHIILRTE
Description: A small gap was opened on

fibrin hydrogel = assay: Stiffness (storage modulus) of fibrin gel by rheometer
Protocol: To minimize sample evaporation at 37 °C, a tissue paper wet in HEPEs buffer (10 mM, pH 7.8) was placed inside the H-PTD chamber to increase the humidity. […] The cone and plate were treated with plasma for 5 min to increase the hydrophilicity of the metal surface.
Fibrin gel: Fibrinogen (Shanghai Laishi Xuezhipin Limited Company) was dissolved in PBS with a concentration of 22.2 mg mL^−1 overnight at room temperature with gentle shaking and aliquoted in protein low-binding tubes (45 µL per tube). […] Fifty microliters of thrombin (4 EU mL^−1 in PBS with 1.8 mM CaCl2) was added and pipetted up and down ten times. Then, it was transferred to the rheometer plate for measurement. […] For each condition, two independent experiments were performed (Fig. 1a and Supplementary Fig. 1).

Compound	effect on PACS in two-way mixed lymphocyte reaction [1]	cell surface PPIase activity k, Exp. 1 ([1]; healthy donors ab mixed) [s⁻¹]	cell surface PPIase activity k, Exp. 2 ([1]; healthy donors ab mixed) [s⁻¹]	cell surface PPIase activity k, Exp. 3 ([1]; healthy donors ab mixed) [s⁻¹]	cell surface PPIase activity k, Exp. 4 ([1]; healthy donors ab mixed) [s⁻¹]	cell surface PPIase activity k, Mean ([1]; healthy donors ab mixed) [s⁻¹]	cell surface PPIase activity k, Exp. 2 ([1]; healthy donors ac mixed) [s⁻¹]	cell surface PPIase activity k, Exp. 3 ([1]; healthy donors ac mixed) [s⁻¹]	cell surface PPIase activity k, Exp. 4 ([1]; healthy donors ac mixed) [s⁻¹]	cell surface PPIase activity k, Mean ([1]; healthy donors ac mixed) [s⁻¹]	cell surface PPIase activity k, Exp. 1 ([1]; healthy donors ad mixed) [s⁻¹]	cell surface PPIase activity k, Exp. 3 ([1]; healthy donors ad mixed) [s⁻¹]	cell surface PPIase activity k, Exp. 4 ([1]; healthy donors ad mixed) [s⁻¹]	cell surface PPIase activity k, Mean ([1]; healthy donors ad mixed) [s⁻¹]	cell surface PPIase activity k, Exp. 1 ([1]; healthy donors bc mixed) [s⁻¹]	cell surface PPIase activity k, Exp. 3 ([1]; healthy donors bc mixed) [s⁻¹]	cell surface PPIase activity k, Exp. 4 ([1]; healthy donors bc mixed) [s⁻¹]	cell surface PPIase activity k, Mean ([1]; healthy donors bc mixed) [s⁻¹]	cell surface PPIase activity k, Exp. 1 ([1]; healthy donors bd mixed) [s⁻¹]	cell surface PPIase activity k, Exp. 2 ([1]; healthy donors bd mixed) [s⁻¹]	also measured
C=CC[C@@H]1/C=C(\C)C[C@H](C)C[C@H](OC)[C@H]2O[C@@](O)(C(=O)C(=O)N3CCCC[C@H]3C(=O)O[C@H](/C(C)=C/[C@@H]3CC[C@@H](O)[C@H](OC)C3)[C@H](C)[C@@H](O)CC1=O)[C@H](C)C[C@@H]2OC [FK506]	recover PACS	0.00026	0.00025	0.00019	0.00029	0.0002475	0.00014	0.00019	0.00016	0.0001625	0.00016	0.00017	0.00015	0.00016	0.00038	0.00031	0.00036	0.000335	0.00021	0.00026	cell surface PPIase activity k, Exp. 1 ([1]; healthy donors ac mixed): 0.00016 s⁻¹; cell surface PPIase activity k, Exp. 2 ([1]; healthy donors bc mixed): 0.00029 s⁻¹; cell surface PPIase activity k, Exp. 4 ([1]; healthy donors bd mixed): 0.00031 s⁻¹; cell surface PPIase activity k, Mean ([1]; healthy donors bd mixed): 0.00026 s⁻¹; cell surface PPIase activity k, Exp. 1 ([1]; healthy donors cd mixed): 0.00017 s⁻¹; cell surface PPIase activity k, Exp. 2 ([1]; healthy donors cd mixed): 0.00019 s⁻¹; cell surface PPIase activity k, Exp. 4 ([1]; healthy donors cd mixed): 0.00018 s⁻¹; cell surface PPIase activity k, Mean ([1]; healthy donors cd mixed): 0.00018 s⁻¹; effect on viscosity of cell/fibrinogen mixture ([2]; Jurkat T lymphocyte and fibrinogen, shear rate 100-1000 s^-1): reduce the viscosity; effect on viscosity of cells in PBS or fibrinogen solution ([2]; Jurkat cells in PBS alone or fibrinogen solution alone): neither CsA nor FK506 has an effect
O=P(O)(O)O [PO4-, inorganic phosphate, reference compound]	–	–	–	–	–	–	–	–	–	–	–	–	–	–	–	–	–	–	–	–	Pin catalyzing cis to trans isomerization rate k, Exp. 1 (Pin1; 25 nM Pin1 + 50 mM PO4-): 0.0025 s⁻¹; Pin catalyzing cis to trans isomerization rate k, Exp. 3 (Pin1; 25 nM Pin1 + 50 mM PO4-): 0.00169 s⁻¹; Pin catalyzing cis to trans isomerization rate k, Mean (Pin1; 25 nM Pin1 + 50 mM PO4-): 0.00212 s⁻¹; effect on Pin1 activity (Pin1; 50 mM): inhibited
CO[C@H]1C[C@@H]2CC[C@@H](C)[C@@](O)(O2)C(=O)C(=O)N2CCCC[C@H]2C(=O)O[C@H]([C@H](C)C[C@@H]2CC[C@@H](O)[C@H](OC)C2)CC(=O)[C@H](C)/C=C(\C)[C@@H](O)[C@@H](OC)C(=O)[C@H](C)C[C@H](C)/C=C/C=C/C=C/1C [rapamycin]	recover PACS	0.00035	0.00038	0.00034	0.0003	0.0003425	0.00041	0.00046	0.00043	0.0004333	0.00034	0.00027	0.00037	0.000315	0.00037	0.00037	0.00034	0.00036	0.00043	0.0005	cell surface PPIase activity k, Exp. 2 ([1]; healthy donors ad mixed): 0.00028 s⁻¹; cell surface PPIase activity k, Exp. 3 ([1]; healthy donors bd mixed): 0.00053 s⁻¹; cell surface PPIase activity k, Exp. 4 ([1]; healthy donors bd mixed): 0.00054 s⁻¹; cell surface PPIase activity k, Mean ([1]; healthy donors bd mixed): 0.0005 s⁻¹; cell surface PPIase activity k, Exp. 1 ([1]; healthy donors cd mixed): 0.00036 s⁻¹; cell surface PPIase activity k, Exp. 2 ([1]; healthy donors cd mixed): 0.00026 s⁻¹; cell surface PPIase activity k, Exp. 3 ([1]; healthy donors cd mixed): 0.00026 s⁻¹; cell surface PPIase activity k, Exp. 4 ([1]; healthy donors cd mixed): 0.0002 s⁻¹; cell surface PPIase activity k, Mean ([1]; healthy donors cd mixed): 0.00027 s⁻¹
CypA R55A: inactive mutant CypA R55A (a gift from Gunter Fischer)	–	–	–	–	–	–	–	–	–	–	–	–	–	–	–	–	–	–	–	–	effect on fibrin gelation as compared to the wild-type CypA (fibrin hydrogel): remarkably reduced
Pin1: recombinant His-Pin1, parvulin family PPIase	–	–	–	–	–	–	–	–	–	–	–	–	–	–	–	–	–	–	–	–	Pin catalyzing cis to trans isomerization rate k, Exp. 1 (Pin1; 6.25 nM Pin1): 0.00224 s⁻¹; Pin catalyzing cis to trans isomerization rate k, Exp. 2 (Pin1; 6.25 nM Pin1): 0.00228 s⁻¹; Pin catalyzing cis to trans isomerization rate k, Exp. 3 (Pin1; 6.25 nM Pin1): 0.00191 s⁻¹; Pin catalyzing cis to trans isomerization rate k, Mean (Pin1; 6.25 nM Pin1): 0.00214 s⁻¹; Pin catalyzing cis to trans isomerization rate k, Exp. 1 (Pin1; 12.5 nM Pin1): 0.00419 s⁻¹; Pin catalyzing cis to trans isomerization rate k, Exp. 2 (Pin1; 12.5 nM Pin1): 0.00424 s⁻¹; Pin catalyzing cis to trans isomerization rate k, Exp. 3 (Pin1; 12.5 nM Pin1): 0.00418 s⁻¹; Pin catalyzing cis to trans isomerization rate k, Mean (Pin1; 12.5 nM Pin1): 0.0042 s⁻¹; Pin catalyzing cis to trans isomerization rate k, Exp. 1 (Pin1; 25 nM Pin1): 0.00841 s⁻¹; Pin catalyzing cis to trans isomerization rate k, Exp. 2 (Pin1; 25 nM Pin1): 0.00868 s⁻¹; Pin catalyzing cis to trans isomerization rate k, Exp. 3 (Pin1; 25 nM Pin1): 0.00853 s⁻¹; Pin catalyzing cis to trans isomerization rate k, Mean (Pin1; 25 nM Pin1): 0.00854 s⁻¹
